What was measured:
[1] = solubility of monomer in solvents; assay type: physicochemical; conditions: wide variety of solvents
Source text: The tert-butyl substituted thienothiophenes and their conjugated oligomers and polymers show better properties compared to their hydrogen, decyl and phenyl analogs.

[2] = toxicity testing, oral LD50; conditions: in vivo
[3] = toxicity testing, dermal LD50; conditions: in vivo, topical or ocular

Structure (SMILES)	solubility in solvents [1]	LD50 [2] [mg/kg]	LD50 [3] [mg/kg]
c1ccc(-c2cc3cscc3s2)cc1 [2-phenyl-thieno[3,4-b]thiophene]	only sparingly soluble		
CC(C)(C)c1cc2cscc2s1 [2-tert-butyl-thieno[3,4-b]thiophene]	readily soluble in a wide variety of solvents	> 500	> 400
c1cc2cscc2s1 [Thieno[3,4-b]thiophene]		50	200 to 400
